This note sets out measurements from paper PMC7934871 (JCI Insight, 2021).

The subject of one test is STAT5. Briefly: Immunoprecipitation and Western blotting, STAT5. The test is classed as binding, human. The note with it: immunoprecipitation, Western blotting, U251 cells. The source says:
Figure 2 PS-acet.-STAT3-peptide specifically binds STAT3 in the nucleus. (A) Penetration of PS-acet.-STAT3 peptide and its colocalization with STAT3 protein in U251 cells are confirmed by confocal microscopy. Scale bars: 50 μm. Insets: original magnification, ×40. (B) PS-acet.-STAT3 peptide specifically binds to STAT3 protein, not STAT1 and STAT5 proteins, shown in U251 cells by immunoprecipitation followed by Western blotting (left panel). Expression of total STAT1, STAT3, and STAT5 was confirmed by Western blotting in U251 cells (input protein level, right panel).
Whole cell lysates or tissue homogenates were prepared by using RIPA lysis buffer (50 mM Tris at pH 7.4, 150 mM NaCl, 1 mM EDTA, 0.5% NP-40, 1 mM NaF, 15% glycerol, and 20 mM β-glycerophosphate). […] Protein amounts were determined by BCA using a Thermo Fisher Scientific kit. […] The protein levels for STAT1 (sc-346, E-23), STAT3 (sc-482, C-20), STAT5 (sc-74442, A-9), Crm1 (exportin 1) (sc-5595, H-300), CAS (exportin 2) (sc-271537, H-2), exportin 5 (sc-66885, H-300), and exportin 7 (sc-98639, H-82) were determined using antibodies from Santa Cruz Biotechnology Inc. Anti–exportin 3 (exportin T, 630622, LOS1 05-1525), anti–exportin 4 (3499-1), and anti–exportin 6 (11408-1-AP) were from MilliporeSigma, Epitomics, and Proteintech, respectively. […]

Another test concerns HCT116 xenograft tumors. Briefly: HCT116 xenograft, monomer versus dimerized peptide, peritumoral. The settings on record: HCT116 s.c. in NSG mice, peritumoral injection, monomer or dimerized, n = 5. Type of test: in vivo, mouse. The source says:
Figure 5 Dimerized PS-acet.-STAT3 peptide has improved antitumor functions. (A) The enhanced antitumor effect of the dimerized PS-acet.-STAT3 peptide is shown in HCT116 tumors grown in NSG mice (n = 5). Two-way ANOVA (Tukey’s multiple comparisons test) was used for analyzing the kinetics of tumor growth over the treatment period; ****P < 0.001; *P < 0.05. (B) The dimerized PS-acet.-STAT3 peptide downregulates pY705-STAT3 more effectively, as analyzed by immunoprecipitation and Western blotting with tumor homogenates from the tumors in A. hc, heavy chain of antibody. […] (D) quantitative real-time RT-PCR showing mRNA levels of STAT3-regulated proapoptotic and prosurvival genes in HCT116 tumor tissues treated with the indicated STAT3 peptides in A. n = 3 independent quantitative real-time RT-PCR experiments. […] Right panels show the quantified Ki-67 protein levels as well as mean of vessel diameter (data include 5 fields of view per group). […]
Mouse care and experimental procedures were performed under pathogen-free conditions in accordance with established institutional guidance and approved IACUC protocols from Research Animal Care Committee of the City of Hope. […] Tumor growth was measured by a digital caliper every other day. […] Lungs were then analyzed for immune responses by immunostaining followed by confocal imaging. […] Tumor growth was measured by a digital caliper every other day. […]

Turning to “PDIPKEEAFGK685(Ac)YCRPESQEHPC-linker-T*C*C*A*T*G*A*G*C*T*T*C*C*T*G*A*T*G*C*T [PS-acet.-STAT3 peptide]”, the “binding to STAT5 protein” value with STAT5 is reported as “not”. For the same substance, the tumor growth entry with HCT116 xenograft tumors was “significantly reduced”.
